In patent publication US10736857B2, “Treatment of pervasive developmental disorders with redox-active therapeutics” (PTC Therapeutics, Inc., priority 2008, dated 2020) one finds EC50 data, which are given here for 2 molecules.

Molecules are shown by their SMILES.

For this assay, the system named is Human Dermal Fibroblasts from Autistic Patients (ASD fibroblasts). Put plainly: Rescue of ASD fibroblasts stressed by addition of L-buthionine-(S,R)-sulfoximine (BSO), Calcein AM viability read-out. It counts as cell-based. The following applies: Fibroblast, 1 mM final BSO, 48 hours, Calcein AM fluorescence, viability relative to non-BSO treated fibroblasts (100%), tested three times, read-out: EC50, protection against ASD (rescue of BSO-stressed ASD fibroblasts). As for the experimental part: A screen was performed to identify compounds effective for the amelioration of ASD. Test samples, and solvent controls were tested for their ability to rescue ASD fibroblasts stressed by addition of L-buthionine-(S,R)-sulfoximine (BSO).
MEM (a medium enriched in amino acids and vitamins, catalog no. Gibco 11965) and Fetal Calf Serum were obtained from Invitrogen. Basic fibroblast growth factor and epidermal growth factor were purchased from PeproTech. Penicillin-streptomycin-glutamine mix, L-buthionine (S,R)-sulfoximine, and insulin from bovine pancreas were purchased from Sigma. Calcein AM was purchased from Molecular Probes. Cell culture medium (ATP) was made by combining 75 ml Fetal Calf Serum, 100 U/ml penicillin, 100 μg/ml streptomycin, 2 mM glutamine, 10 ng/ml EGF, and 10 ng/ml bFGF; MEM EBS was added to make the volume up to 500 ml. A 10 mM BSO solution was prepared by dissolving 444 mg BSO in 200 ml of medium with subsequent filter-sterilization. […]
100 μl of PBS containing 1.2 μM Calcein AM were then added to each well. […] After that time the PBS was discarded, the plate gently tapped on a paper towel and fluorescence (excitation/emission wavelengths of 485 nm and 525 nm, respectively) was read on a Gemini fluorescence reader. […]
The viability of non-BSO treated fibroblasts was set as 100%, and the viability of the BSO- and compound-treated cells was calculated as relative to this value.

Broadly, the EC50 is the concentration needed to bring the measured effect to its halfway point. Turning to `CCCCCCCCCC1=C(C)C(=O)C(C)=C(C)C1=O` [2,3,5-trimethyl-6-nonylcyclohexa-2,5-diene-1,4-dione], the EC50 is below 150 nM. For `CC(C)=CCC/C(C)=C/CC/C(C)=C/CCC(C)(O)CCC1=C(C)C(=O)C(C)=C(C)C1=O` (centres unmarked) [2-(3-hydroxy-3,7,11,15-tetramethylhexadeca-6,10,14-trienyl)-3,5,6-trimethylcyclohexa-2,5-diene-1,4-dione] the value was below 150 nM.
